Literature values as cited in patent publication US11992559B2, “Microsphere formulations comprising lurasidone and methods for making and using the same” (Oakwood Laboratories, LLC, priority 2021, dated 2024).
Where a name gives a salt, the structure may show the parent alone.

Columns and labels:
[1] = at 25° C.

## O=C1[C@@H]2[C@H]3CC[C@H](C3)[C@@H]2C(=O)N1C[C@@H]1CCCC[C@H]1CN1CCN(c2nsc3ccccc23)CC1 [lurasidone HCl, Lurasidone]
[1]
  specific hydrophobicity log Pow: 5.6
Benzyl alcohol
  solubility in benzyl alcohol: 69.19 mg/g
dichloromethane
  solubility in dichloromethane: 24.43 mg/g
water
  water solubility: 224 µg/mL
